Tests used:
[1] = Stability of Compound 1 formulations with and without antioxidants; type: physicochemical
Excerpt: The stability of three formulations of Compound 1 are compared, the formulations being identical except that one is without any antioxidants, one contains α-tocopherol, and the third contains sodium ascorbylphosphate.

[2] = Decomposition of Compound 1 in buffered vs unbuffered pH 7.2 formulation; type: physicochemical; conditions: phosphate buffered vs unbuffered formulation, pH 7.2, over 14 days
Method: Two pH 7.2 formulations of Compound 1 are prepared, one with phosphate buffer, one without, and the decomposition of Compound 1 is measured over 14 days. While measurable decomposition is seen in both formulations, the slope of the rate of decomposition Compound 1 in the buffered formulation is decreased by 3.3 fold compared to that of the unbuffered formulation.

[3] = type: physicochemical
Excerpt: The poor solubility of Compound A presents some formulation challenges. Its solubility in water is less than 100 ppm, and its solubility in flavor oils (often used to solubilize actives) is less than 0.5%. We have discovered that co-polymers of polyethylene glycol and polypropylene glycol are able to solubilize Compound 1. Fluraflo L4370 (BASF) is able to solubilize 1% Compound 1 (% w/w). It is necessary to stir the solution over low heat to fully solubilize the active. The resulting solution is cloudy, reflecting the nature of the Fluraflo L4370 itself. The solution of 1% Compound 1 in Fluraflo L4370 is diluted 1:1 with 1.5% SLS in water to produce a clear solution, composed of 0.5% AN0128, 0.75% SLS, 50% Fluraflo L4370 in water Similar results are achieved using Fluracare L1220.
We also discovered that Tri-block Co-polymer Surfactant F127 is able to further enhance solubilization of Compound 1. In experimental liquid dentifrice formulas (Table 3), Compound 1 is not completely soluble over time, as evidenced by precipitation and crystallization over time. After the addition of 5% F127, experimental liquid dentifrice formulas (Table 4) remain clear. Therefore, Tri-block Co-polymer Surfactant F127 is able to further solubilize Compound 1 and is suitable for use in formulations.
We further discovered that low molecular weight polyethylene glycol 300 (PEG 300)(Dow Chemical Company) solubilizes 10% Compound 1 (% w/w). It is necessary to stir the solution over low heat to fully solubilize the active. The resulting solution is clear with a slight yellow tint due to the color of Compound 1. […] Therefore, we conclude that solvents containing oligomers and/or polymers of ethylene glycol are capable of solubilizing Compound 1 and are suitable for formulation.
The properties of Compound 1 in conjunction with other excipients are further evaluated by diluting a solution of Compound 1 in PEG 300 into other solvents such as propylene glycol and glycerin at varying ratios. A solution containing 1% Compound 1 in 19% PEG 300 and 80% propylene glycol is clear. […]

biofilm = assay: Biofilm disruption assay; type: cell-based
Method: The solution of 0.5% AN0128.0.75% SLS. 50% Fluraflo L4370 in water is then tested in a biofilm disruption assay.
A solution of 2% Compound 1 in PEG 300 is diluted 1:1 with 2% SLS in water to produce a solution composed of 1% Compound 1, 1% SLS, 50% PEG 300 in water which is then tested in a biofilm disruption assay.
The properties of Compound 1 in conjunction with other excipients are further evaluated by diluting a solution of Compound 1 in PEG 300 into other solvents such as propylene glycol and glycerin at varying ratios. A solution containing 1% Compound 1 in 19% PEG 300 and 80% propylene glycol is clear. This solution is then diluted 1:1 with 1% SLS in water to produce a solution composed of 0.5% Compound 1, 0.5% SLS, 9.5% PEG 300 and 40% propylene glycol in water which is then tested in the biofilm disruption assay. The percent reduction achieved versus the negative control is 80%. […] Similar results are achieved with PEG and glycerin.

Cc1ccc([B-]2(c3ccc(C)c(Cl)c3)OC(=O)c3ncccc3[OH+]2)cc1Cl [Compound 1]
decomposition in formulation ([1]; formulation containing sodium ascorbylphosphate vs without any antioxidants): significantly reduced | decomposition in formulation ([1]; formulation containing α-tocopherol vs sodium ascorbylphosphate formulation): even less | decrease of slope of the rate of decomposition of Compound 1 [2]: 3.3 fold | amount solubilized in Fluraflo L4370 [3]: 1 % w/w | amount solubilized in polyethylene glycol 300 [3]: 10 % w/w | solubility in various oils [3]: less than 0.5% | percent reduction versus the negative control (biofilm; 0.5% AN0128, 0.75% SLS, 50% Fluraflo L4370 in water): 65% | percent reduction versus the negative control (biofilm; 0.5% Compound 1, 0.5% SLS, 9.5% PEG 300 and 40% propylene glycol in water): 80% | percent reduction versus the negative control (biofilm; 1% Compound 1, 1% SLS, 50% PEG 300 in water): 76%
